US7868177B2, “Multi-cyclic compounds and method of use” (Amgen Inc., priority 2006, dated 2011)

Biological target: T1, AuroraA-TPX2 (Homo sapiens, UniProt O14965)
T1 construct: 20 μL of AuroraA-TPX2 KD GST for a final volume of 41 μL; GST
T1 sequence (O14965 133-383 limits assumed): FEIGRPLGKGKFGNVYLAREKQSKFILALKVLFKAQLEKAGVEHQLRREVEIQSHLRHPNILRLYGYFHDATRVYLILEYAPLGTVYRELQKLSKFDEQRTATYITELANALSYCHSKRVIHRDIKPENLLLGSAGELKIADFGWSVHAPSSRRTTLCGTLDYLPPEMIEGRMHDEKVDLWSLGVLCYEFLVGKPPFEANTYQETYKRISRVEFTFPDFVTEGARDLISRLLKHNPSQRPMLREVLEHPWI
T1 sequence (Q9ULW0 1-43 partner limits assumed): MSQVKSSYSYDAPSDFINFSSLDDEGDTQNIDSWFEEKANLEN
Experiment: AuroraA-TPX2 HTRF kinase assay (Aurora kinase A HTRF assay)
Assay type: biochemical
Procedure: AuroraA-TPX2-Homogeneous Time Resolved Fluorescent (HTRF) Kinase Assay:
The AuroraA HTRF assay begins with AuroraA in the presence of ATP phosphorylating the biotinylated peptide PLK. The reaction incubates for about 120 min. Detection reagents are added to quench the reaction. These agents stop the reaction by diluting out the enzyme and chelating the metals due to the presence of EDTA. After addition, the assay is incubated overnight to allow the detection reagents to equilibrate.
The AuroraA HTRF assay comprises 1 μL of compound in 100% DMSO, 20 μL of ATP and biotinylated PLK, and 20 μL of AuroraA-TPX2 KD GST for a final volume of 41 μL. The final concentration of PLK is about 1 μM. […] Buffer conditions are as follows: 60 mM HEPES pH 7.5, 25 mM NaCl, 10 mM MgCl, 2 mM DTT, 0.05% BSA.
The assay is quenched and stopped with 160 μL of detection reagent. Detection reagents are as follows: Buffer made of 50 mM Tris, pH 7.5, 100 mM NaCl, 3 mM EDTA, 0.05% BSA, 0.1% Tween20. Added to this buffer prior to reading is Steptavidin allophycocyanin (SA-APC) at a final conc in the assay of 0.0005 mg/mL, and europilated anti-phosphoPLK Ab (Eu-anti-PLK) at a final conc of 0.02 nM.
The assay plate is read in either a Discovery or a RubyStar. The eu-anti-PLK is excited at 320 nm and emits at 615 nm to excite the SA-APC which in turn emits at 655 nm. The ratio of SA-APC at 655 nm (excited due to close proximity to the Eu-anti-PLK because of phosphorylation of the peptide) to free Eu-anti-PLK at 615 nm will give substrate phosphorylation.

SMILES | IC50 [µM]
Cc1ccc2nc(Nc3ccc(Oc4ncccc4-c4ccncn4)c(C)c3)oc2c1 [Example 48, 6-methyl-N-(3-methyl-4-((3-(4-pyrimidinyl)-2-pyridinyl)oxy)phenyl)-1,3-benzoxazol-2-amine] | ≤ 5
CN1CCCC1CCNc1nccc(-c2cccnc2Oc2ccc(Nc3nc4ccccc4[nH]3)c3ccccc23)n1 (stereo not drawn) [Example 46, N-(4-((3-(2-((2-(1-methyl-2-pyrrolidinyl)ethyl)amino)-4-pyrimidinyl)-2-pyridinyl)oxy)-1-naphthalenyl)-1H-benzimidazol-2-amine] | ≤ 5
Cn1cc(-c2ccccc2)nc1Nc1ccc(Oc2ncccc2-c2ccnc(N)n2)cc1 [Example 115, 4-(2-((4-((1-methyl-4-phenyl-1H-imidazol-2-yl)amino)phenyl)oxy)-3-pyridinyl)-2-pyrimidinamine] | ≤ 5
